Assay results reported in patent US10905736B2, “Ezetimibe-associated ApoA-I mimetic peptides showing enhanced synergism” (The Regents of the University of California, priority 2016, dated 2021).
“Also recorded” adds a separate entry of the source.

Experiments:
LDLR null mice = experiment: Plasma lipid levels (total cholesterol, triglycerides, HDL-cholesterol) in LDLR null mice fed Western diet for two weeks; type: in vivo, mouse
Experimental: Res. Per. 3: e00154; Chattopadhyay et al. (2016) J. Lipid Res. 57: 832-847; PCT Pub. Nos: WO 2013/148214 (PCT/US2013/031037), WO 2015/175968 (PCT/US2015/031134)) (Tg6F), or the mice were fed WD with Ezetimibe added to give a daily dose of 10 mg/kg body weight/day (WD+Ezetimibe), or the mice were fed WD with Tg6F added at 0.06% by weight plus Ezetimibe (each added separately to the diet) to give a daily dose of Ezetimibe of 10 mg/kg body weight; the Tg6F and Ezetimibe were mixed into WD as described previously (Chattopadhyay et al. (2016) J. Lipid. Res. 57: 832-847) (Combined Formulation), or the mice were fed WD to which was added ezetimibe-associated transgenic 6F peptide (Ez-tg6F) at 0.06% Tg6F by weight containing sufficient Ezetimibe to give a daily dose of 10 mg/kg body weight/day that was prepared as described herein. Specifically, the ezetimibe-associated Tg6F peptide (Ez-Tg6F) was made by adding the ezetimibe directly to a solution of ethyl acetate 5% acetic acid that had been incubated overnight at room temperature with freeze-dried tomato powder obtained from transgenic tomatoes expressing the 6F peptide, and which had been removed to a separate vessel as described previously (see, e.g., Chattopadhyay et al. (2015) Pharma. Res. Per. 3: e00154; Chattopadhyay et al. (2016) J. Lipid. Res. 57: 832-847) prior to addition of the ezetimibe. After the addition of the ezetimibe, the solution was incubated at room temperature with gentle mixing for two hours prior to processing and addition of the resulting freeze-dried powder to WD as previously described (Chattopadhyay et al. (2016) J. Lipid. Res. 57: 832-847). After feeding the diets for two weeks, the mice were bled and total plasma cholesterol levels were determined as described (Id.). NS=Not Significant.
LDLR-null mice originally purchased from Jackson Laboratories on a C57BL/6J background were obtained from the breeding colony of the Department of Laboratory and Animal Medicine at the David Geffen School of Medicine at UCLA. The gender and age of the mice are stated in the legend to each figure. The mice were maintained on standard mouse chow (Ralston Purina) before being switched to a Western diet WD (Teklad, Harlan, catalog #TD88137).
In experiments in which Tg6F or EV or Ezetimibe were administered as single agents, the EV or Tg6F concentrate was added to WD at 0.06% by weight or Ezetimibe was added to WD to give a final dose of 10 mg/kg body weight/day. The EV or Tg6F concentrate or Ezetimibe was mixed into the diets as described (Chattopadhyay et al. (2015) Pharma. Res. Per. 3: e00154). […]

[1] = tested on: Niemann-Pick C1-like 1 (NPC1L1) protein; conditions: by targeting NPC1L1; cited from earlier work

Structure (SMILES): O=C1[C@H](CC[C@H](O)c2ccc(F)cc2)[C@@H](c2ccc(O)cc2)N1c1ccc(F)cc1 [Ezetimibe, (3R,4S)-1-(4-fluorophenyl)-3-[(3S)-3-(4-fluorophenyl)-3-hydroxypropyl]-4-(4-hydroxyphenyl)azetidin-2-one]
- dyslipidemia (plasma total cholesterol, triglycerides, HDL-Cholesterol) (LDLR null mice; female LDLR null mice age 3-6 months, n=20-28 per group, WD two weeks, Tg6F 0.06% by weight, Ezetimibe 10 mg/kg/day, FIG. 15): significantly ameliorated dyslipidemia
- plasma triglyceride levels (LDLR null mice; statement over the experiments of Example 3 (single agents five out of five, Combined Formulation five out of five, Novel Method three out three experiments)): equally effective; also recorded: improved plasma total cholesterol and triglyceride levels
- plasma total cholesterol levels (LDLR null mice; statement over the experiments of Example 3 (single agents five out of five, Combined Formulation four out of five, Novel Method three out three experiments)): equally effective; also recorded: improved plasma total cholesterol and triglyceride levels
- plasma HDL-cholesterol levels (LDLR null mice; statement over the experiments of Example 3 (single agents four out of four, Combined Formulation four out of four, Novel Method two out of two experiments)): equally effective; also recorded: significantly increased the levels
- transintestinal cholesterol efflux (TICE) [1]: promotes TICE
